Source: article PMC8042122 (Scientific Reports, 2021)
“Also recorded” adds a separate entry of the source. Where two headings read alike, the source gives them in different places. No end group written: not given here.

Assays:
[1] = system: F. graminearum CBS185.32 strain; format: cell-based, Fusarium graminearum
[2] = system: F. graminearum CBS185.32 strain; format: cell-based, Fusarium graminearum; remark: listed apart in the source
[3] = system: F. graminearum CBS185.32 strain; format: cell-based, Fusarium graminearum; remark: listed apart in the source
[4] = system: F. graminearum strain 8/1; conditions: cited from earlier work
bacterial growth = conditions: cited from earlier work

| Substance | DON production ([1]; 50 µM) | 15-ADON production ([2]; 50 µM) | Effect on fungal growth (fungal biomass weight) ([3]; 50 µM) | Effect on fungal growth (dry fungal biomass weight) [3] | other results |
| --- | --- | --- | --- | --- | --- |
| C(CH3)GNFLKRTC(CH3)IC(CH3)VKK [TC3-CH3-123, TC3 with all Cys capped with CH3 groups] | significantly more | significantly more |  |  |  |
| C(CH3)GNFLKRTCICVKK (disulfide) [TC3-CH3-1Ox, TC3-CH3-1 oxidized, cyclized through the non-capped Cys] | reduction | reduction | significantly less effect |  | Reduction of 15-ADON production ([2]; 50 µM): about 42% |
| C(CH3)GNFLKRTCICVKK [TC3-CH3-1, TC3 with Cys1 capped with a methyl group] | reduction | reduction | significantly less effect |  | Reduction of 15-ADON production ([2]; 50 µM): about 33% |
| CGNFLKRTC(CH3)ICVKK (disulfide) [TC3-CH3-2Ox, TC3-CH3-2 oxidized, cyclized through the non-capped Cys] |  |  | significantly less effect |  |  |
| CGNFLKRTC(CH3)ICVKK [TC3-CH3-2, TC3 with Cys9 capped with a methyl group] |  |  | significantly less effect |  |  |
| CGNFLKRTCIC(CH3)VKK (disulfide) [TC3-CH3-3Ox, TC3-CH3-3 oxidized, cyclized through the non-capped Cys] |  |  | significantly less effect |  |  |
| CGNFLKRTCIC(CH3)VKK [TC3-CH3-3, TC3 with Cys11 capped with a methyl group] |  |  | significantly less effect |  |  |
| CGNFLKRTCICVKK (disulfide (positions not given here)) [TC3Ox] | significantly decreased | significantly decreased |  | reduced effect | DON production ([1]; 25 µM): significantly decreased; 15-ADON production ([2]; 25 µM): significantly decreased |
| CGNFLKRTCICVKK [TC3, γ-core of the Ixodes ricinus defensin DefMT3, reduced (linear) form] | trace amounts; also recorded: abrogated | trace amounts; also recorded: abrogated |  | significant dose-dependent inhibition | DON production ([1]; 12.5 µM): non-significant reduction; DON production ([1]; 25 µM): trace amounts; Effect on germination [4]: decrease germination; Effect on bacterial growth (bacterial growth): little or no effect; 15-ADON production ([2]; 12.5 µM): non-significant reduction; 15-ADON production ([2]; 25 µM): trace amounts; Reduction of fungal growth (fold) ([3]; 50 µM): 1.8 times |
| CGNFLKRTCICVKT [TC3-K14T, TC3 with Lys 14 substituted by Thr] |  |  |  | no effect |  |
